Results from PubChem BioAssay AID248 (DTP/NCI, 2004).
Where “and” joins values, the source holds several entries; their conditions need not be identical. Equal values may be shown once. Toxic doses and inconclusive results are not listed.

Tested on: L1210 leukemia ip in BDF1 mice, survival T/C
Test: NCI In Vivo Anticancer Drug Screen. Data for tumor model L1210 Leukemia (intraperitoneal) in B6D2F1 (BDF1) mice
Conditions: endpoint: mean survival time, higher = longer survival
Procedure, shortened: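 Transplanted-tumor mice were given test agent; controls received vehicle only. Survival readings from the two groups were divided (treated over control).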

[1] = dose: 62.5 mg/kg/injection, schedule: Q01DX Z (ip), vehicle: carboxymethylcellulose (CMC)
[2] = dose: 100.0 mg/kg/injection, schedule: Q01DX009 (ip), vehicle: Klucel (hydroxypropylcellulose) (HPC)
[3] = dose: 125.0 mg/kg/injection, schedule: Q01DX Z (ip), vehicle: carboxymethylcellulose (CMC)
[4] = dose: 300.0 mg/kg/injection, schedule: Q01DX009 (ip), vehicle: Klucel (hydroxypropylcellulose) (HPC)

## O=S(=O)(O)SCCCNCCCCCCCCNCCCSS(=O)(=O)O
dose: 100.0 mg/kg/injection, schedule: Q04DX003 (ip), vehicle: saline with Tween-80
  T/C: 101 % of control
dose: 200.0 mg/kg/injection, schedule: Q04DX003 (ip), vehicle: saline with Tween-80
  T/C: 92 % of control
dose: 400.0 mg/kg/injection, schedule: Q04DX003 (ip), vehicle: saline with Tween-80
  T/C: 88 % of control

## Cc1cc(NC(=O)c2ccc(C(=O)Nc3cc(C)nc4ccccc34)cc2)c2ccccc2n1
dose: 100.0 mg/kg/injection, schedule: Q01DX001 (ip), vehicle: other
  T/C: 102 % of control

## CC(NN)c1ccccc1 (configuration not stated)
dose: 50.0 mg/kg/injection, schedule: Q01DX001 (ip), vehicle: saline
  T/C: 101 % of control
dose: 100.0 mg/kg/injection, schedule: Q01DX001 (ip), vehicle: saline
  T/C: 105 % of control

## Ic1ncnc2nc[nH]c12
dose: 56.0 mg/kg/injection, schedule: Q01DX Z (ip), vehicle: carboxymethylcellulose (CMC)
  T/C: 104 % of control
[1]
  T/C: 115 % of control
[2]
  T/C: 118 % of control
dose: 100.0 mg/kg/injection, schedule: Q04DX003 (ip), vehicle: other
  T/C: 106 % of control
dose: 112.0 mg/kg/injection, schedule: Q01DX Z (ip), vehicle: carboxymethylcellulose (CMC)
  T/C: 121 % of control
[3]
  T/C: 110 % of control
dose: 132.0 mg/kg/injection, schedule: Q01DX009 (ip), vehicle: saline
  T/C: 122 % of control
dose: 200.0 mg/kg/injection, schedule: Q01DX009 (ip), vehicle: Klucel (hydroxypropylcellulose) (HPC)
  T/C: 119 % of control
dose: 200.0 mg/kg/injection, schedule: Q01DX009 (ip), vehicle: saline
  T/C: 120 % of control
dose: 200.0 mg/kg/injection, schedule: Q04DX003 (ip), vehicle: other
  T/C: 103 % of control
[4]
  T/C: 151 % of control
dose: 400.0 mg/kg/injection, schedule: Q04DX003 (ip), vehicle: other
  T/C: 103 % of control

## OCC1OC(n2cnc3c(Cl)ncnc32)C(O)C1O (configuration not stated)
dose: 62.5 mg/kg/injection, schedule: Q01DX009 (ip), vehicle: saline
  T/C: 96 % of control
dose: 62.5 mg/kg/injection, schedule: Q01DX010 (ip), vehicle: saline
  T/C: 102 % of control
[1]
  T/C: 102 % of control
[2]
  T/C: 102 % of control
dose: 125.0 mg/kg/injection, schedule: Q01DX009 (ip), vehicle: saline
  T/C: 93 % of control and 89 % of control
dose: 125.0 mg/kg/injection, schedule: Q01DX010 (ip), vehicle: saline
  T/C: 89 % of control and 92 % of control
[3]
  T/C: 96 % of control
dose: 250.0 mg/kg/injection, schedule: Q01DX009 (ip), vehicle: saline
  T/C: 96 % of control and 91 % of control
dose: 250.0 mg/kg/injection, schedule: Q01DX010 (ip), vehicle: saline
  T/C: 100 % of control and 92 % of control
dose: 250.0 mg/kg/injection, schedule: Q01DX Z (ip), vehicle: carboxymethylcellulose (CMC)
  T/C: 110 % of control
[4]
  T/C: 101 % of control
dose: 440.0 mg/kg/injection, schedule: Q01DX001 (ip), vehicle: carboxymethylcellulose (CMC)
  T/C: 96 % of control
dose: 500.0 mg/kg/injection, schedule: Q01DX009 (ip), vehicle: Klucel (hydroxypropylcellulose) (HPC)
  T/C: 100 % of control
dose: 500.0 mg/kg/injection, schedule: Q01DX009 (ip), vehicle: saline
  T/C: 96 % of control and 98 % of control
dose: 500.0 mg/kg/injection, schedule: Q01DX010 (ip), vehicle: saline
  T/C: 97 % of control and 88 % of control
dose: 500.0 mg/kg/injection, schedule: Q01DX Z (ip), vehicle: carboxymethylcellulose (CMC)
  T/C: 94 % of control
dose: 670.0 mg/kg/injection, schedule: Q01DX001 (ip), vehicle: carboxymethylcellulose (CMC)
  T/C: 95 % of control
dose: 1000.0 mg/kg/injection, schedule: Q01DX001 (ip), vehicle: carboxymethylcellulose (CMC)
  T/C: 95 % of control
dose: 1000.0 mg/kg/injection, schedule: Q01DX009 (ip), vehicle: Klucel (hydroxypropylcellulose) (HPC)
  T/C: 106 % of control
dose: 1500.0 mg/kg/injection, schedule: Q01DX001 (ip), vehicle: carboxymethylcellulose (CMC)
  T/C: 90 % of control
dose: 2250.0 mg/kg/injection, schedule: Q01DX001 (ip), vehicle: carboxymethylcellulose (CMC)
  T/C: 97 % of control

## CC(C)NCC1CCCCO1 (configuration not stated)
dose: 55.0 mg/kg/injection, schedule: Q01DX Z (ip), vehicle: methylcellulose (MC)
  T/C: 91 % of control
dose: 83.0 mg/kg/injection, schedule: Q01DX Z (ip), vehicle: methylcellulose (MC)
  T/C: 88 % of control
dose: 125.0 mg/kg/injection, schedule: Q01DX Z (ip), vehicle: methylcellulose (MC)
  T/C: 100 % of control
